Data taken from publication PMC9921896 (Molecules, 2023).

Legend:
CYP2C8 = biological target: T1, CYP2C8 (Homo sapiens, UniProt P10632); test: Single concentration Kobs assay (time-dependent inhibition) in HLM; assay type: biochemical; conditions: for Kobs 2C8: HLM, 0.02 min^−1 indicates TD inhibition potential; for Kobs 2C8 / inhibition at 30 min: single concentration; for Single concentration Kobs assay (risk bin) 2C8: TD inhibition class from Kobs vs 0.02 min^−1 (Table 5 traffic lights); for inhibition at 30 min: human, human liver microsomes, significant if >50%, read-out: 2C8 R_Inh% (reversible inhibition)
T1 construct: Using HLM as the enzyme source; from tissue; host or cells: human liver microsomes
T1 sequence (P10632 1-490): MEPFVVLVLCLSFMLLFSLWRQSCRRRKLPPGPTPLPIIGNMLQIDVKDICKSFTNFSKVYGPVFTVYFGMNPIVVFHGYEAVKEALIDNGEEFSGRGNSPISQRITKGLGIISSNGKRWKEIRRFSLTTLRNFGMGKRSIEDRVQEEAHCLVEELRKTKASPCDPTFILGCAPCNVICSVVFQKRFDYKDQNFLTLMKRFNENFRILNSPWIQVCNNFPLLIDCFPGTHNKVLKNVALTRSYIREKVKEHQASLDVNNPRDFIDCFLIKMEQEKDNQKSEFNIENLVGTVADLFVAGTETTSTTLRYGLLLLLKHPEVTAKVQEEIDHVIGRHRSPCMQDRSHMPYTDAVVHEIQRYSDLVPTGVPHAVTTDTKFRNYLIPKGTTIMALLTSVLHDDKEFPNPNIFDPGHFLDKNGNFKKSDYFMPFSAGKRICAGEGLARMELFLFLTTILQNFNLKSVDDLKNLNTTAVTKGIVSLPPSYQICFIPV
Text: (§1) CYP inhibition evaluation is typically performed by either IC50 at single-point or IC50 Shift or abbreviated assay such as the first-order inactivity rate constant (K obs ) at single concentration.
(§2) This method yielded good correlations between the percent inhibition at 10 or 25 μ M and kinact/KI. Evaluation of TD inhibition at single concentration has been implemented in several drug discovery programs. […] Therefore, in this study, a single K obs approach has been utilized to understand the TD inhibition potential of TbB ligands. Ideally, the inhibition of CYPs can be reversible or irreversible. The data obtained from single-concentration K obs studies were analyzed to understand the same. From the data presented in Table 4, the TbB ligands have values less than 50% for reversible inhibition (R_Inh). As the qualified % reversible inhibition is considered significant if >50%, no significant reversible inhibition is observed for TbB ligands. Knowledge about enzyme inactivation half-life (E½) is also equally important as it would provide insight into the TD inhibition of a compound. E½ can be used to bin the compounds as positive or negative TD inhibitors if the values are <28 or >28, respectively. The TbB ligand 223-2 is observed to be a weak positive TD inhibitor of 1A2 and is negative TD inhibitor to the other six CYP isoforms.
(§3) The time-dependent inhibition (TDI) potential of test compounds against CYP1A2, 2B6, 2C8, 2C9, 2C19, 2D6, 3A4/5 isoforms were determined using Human liver microsomes. Assay is performed in 96-deep well plate format (n = 1). Positive controls and DMSO as negative control in each assay. To obtain 100 μ M working stock solution, 1 μ L of blank DMSO/test/reference compounds to 100 μ L 1× DPBS buffer was added and labeled as dilution plate. To the primary incubation plate, 45 μ L of primary mix was dispensed to the desired wells containing 25 μ L HLM, 10 μ L MgCl2, and 10 μ L of NADPH working solutions. To the secondary incubation plate, 95 μ L of secondary mix was dispensed to the desired wells containing 20 μ L MgCl2, 20 μ L NADPH, 10 μ L respective substrates for CYP isoform working solutions and 45 μ L 1× DPBS buffer. Each of these four plates were labeled with their respective time points, i.e., 0, 6, 16, 32 min. Pre-incubated the dilution plate along with primary incubation plate at 37 °C for 15 min at 450 rpm. The reaction was carried out in triplicate. After the incubation, the reaction was quenched by adding 150 μ L ice cold stop solution to all the wells followed by centrifuging the samples at 4000 rpm, 4 °C for 15 min. The supernatant samples were then transferred into vials for LC-MS/MS analysis. The percent Reversible Inhibition was calculated using the following formula. %Reversibleinhibition=100−(PARtestcompt0×100)/(PARaverageDMSOt0)

CYP2D6 = biological target: T2, CYP2D6 (Homo sapiens, UniProt P10635); test: as above; assay type: biochemical; conditions: for Kobs 2D6: HLM, 0.02 min^−1 indicates TD inhibition potential; for Kobs 2D6 / inhibition at 30 min: single concentration; for Single concentration Kobs assay (risk bin) 2D6: TD inhibition class from Kobs vs 0.02 min^−1 (Table 5 traffic lights); for inhibition at 30 min: human, human liver microsomes, significant if >50%, read-out: 2D6 R_Inh% (reversible inhibition)
T2 construct: Using HLM as the enzyme source; from tissue; host or cells: human liver microsomes
T2 sequence (P10635 whole entry): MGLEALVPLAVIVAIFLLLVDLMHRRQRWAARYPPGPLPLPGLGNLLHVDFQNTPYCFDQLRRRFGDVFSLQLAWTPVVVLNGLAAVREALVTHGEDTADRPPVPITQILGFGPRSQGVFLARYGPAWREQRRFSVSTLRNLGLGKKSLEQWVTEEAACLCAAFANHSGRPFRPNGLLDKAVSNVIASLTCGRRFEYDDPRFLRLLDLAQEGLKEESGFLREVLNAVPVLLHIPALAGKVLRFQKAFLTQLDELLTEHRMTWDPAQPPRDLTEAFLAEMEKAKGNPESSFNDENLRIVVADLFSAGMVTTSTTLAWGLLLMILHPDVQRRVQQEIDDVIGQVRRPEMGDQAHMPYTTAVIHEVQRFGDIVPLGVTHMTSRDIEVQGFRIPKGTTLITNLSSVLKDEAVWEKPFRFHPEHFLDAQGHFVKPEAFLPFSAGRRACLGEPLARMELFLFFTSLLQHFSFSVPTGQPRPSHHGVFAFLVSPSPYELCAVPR
Text: as §1, §2, §3

estrogenicity = conditions: cited from earlier work

Cc1cc(-c2nnn(-c3cc(C)c(O)c(C)c3)n2)cc(C)c1O [223-3]
Kobs 2C8 (CYP2C8): 0.02943 min⁻¹
Single concentration Kobs assay (risk bin) 2C8 (CYP2C8): positive inhibitor
inhibition at 30 min (CYP2C8): < 50%
Kobs 2D6 (CYP2D6): 0.01109 min⁻¹
Single concentration Kobs assay (risk bin) 2D6 (CYP2D6): weak positive inhibitor
inhibition at 30 min (CYP2D6): < 50%
estrogenicity by in vitro studies (estrogenicity): potentially non-estrogenic

COc1cc(-c2nnn(-c3cc(OC)c(O)c(OC)c3)n2)cc(OC)c1O [223-2]
Kobs 2C8 (CYP2C8): 0.004276 min⁻¹
Single concentration Kobs assay (risk bin) 2C8 (CYP2C8): negative inhibitor
inhibition at 30 min (CYP2C8): < 50%
Kobs 2D6 (CYP2D6): 1.479e-10 min⁻¹
Single concentration Kobs assay (risk bin) 2D6 (CYP2D6): negative inhibitor
inhibition at 30 min (CYP2D6): < 50%
estrogenicity by in vitro studies (estrogenicity): potentially non-estrogenic

Oc1ccc(-c2nnn(-c3ccc(O)cc3)n2)cc1 [223-10]
Kobs 2C8 (CYP2C8): 0.01585 min⁻¹
Single concentration Kobs assay (risk bin) 2C8 (CYP2C8): weak positive inhibitor
inhibition at 30 min (CYP2C8): < 50%
Kobs 2D6 (CYP2D6): 0.009064 min⁻¹
Single concentration Kobs assay (risk bin) 2D6 (CYP2D6): negative inhibitor
inhibition at 30 min (CYP2D6): < 50%
